Experimental findings from ChEMBL document CHEMBL1143652, “Joys of molecules. 2. Endeavors in chemical biology and medicinal chemistry” (J Med Chem, 2005) are described below.

Test [1] deals with T1, Integrin alpha-IIb/beta-3 (Homo sapiens, UniProt P05106+P08514). The experiment in a line: Inhibitory concentration against integrin alpha-2b beta3. It is filed as protein-complex assay.
Test [2] addresses T1, Integrin alpha-IIb/beta-3. The experiment in a line: Inhibitory concentration against alpha IIb beta-3 receptor. It is filed as protein-complex assay.
Test [3] has as its system OVCAR-3. The test can be described thus: Cytotoxicity by measuring inhibitory concentration against ovcar-3 tumor cell line; Inactive. It is filed as functional, cell-based, Homo sapiens.
For test [4], the target named is T2, Sodium channel alpha subunits; brain (Types I, II, III) (Homo sapiens, UniProt P35498+Q99250+Q9NY46). The experiment in a line: Inhibitory concentration against synaptosome using [3H]PbTx-3.
In test [5] the target is T2, Sodium channel alpha subunits; brain (Types I, II, III).
Description: Binding affinity of [3H]PbTx-3 towards synaptosomes
For test [6] the target is unchanged. The test can be described thus: Inhibitory concentration against synaptosomes using [3H]PbTx-3. It is filed as subcellular.
Test [7] concerns the target T3, Bile acid receptor (Homo sapiens, UniProt Q96RI1). The test can be described thus: Effective concentration towards farnesoid X receptor (FXR); Range is 5-10 uM.
Test [8] has as its target T3, Bile acid receptor. The experiment in a line: Effective concentration against farnesoid X receptor (FXR); range is 5-10 uM.
The subject of a further test is 1A9. The test can be described thus: Inhibitory concentration against human 1A9 ovarian carcinoma cells. It is filed as functional, cell-based.
The subject of another test is Staphylococcus aureus. The experiment in a line: Minimum inhibitory concentration against methicillin resistant Staphylococcus aureus (MRSA); range is 3-12 ug/mL. It is filed as functional.
A further test relates to Enterococcus faecium. The test can be described thus: Minimum inhibitory concentration against vancomycin resistant Enterococcus faecium. It is filed as functional.
Test [9] concerns MOLT-4. The test can be described thus: Inhibitory concentration against MOLT-4 human T-cells; 10e-12. It is filed as functional, cell-based.
In test [10] the test system is MOLT-4. The experiment in a line: Inhibitory concentration against MOLT-4 human T-cells. It is filed as functional, cell-based.
Test [11] addresses Peptidyl-prolyl cis-trans isomerase FKBP1A (Homo sapiens, UniProt P62942). The test can be described thus: Inhibitory concentration against binding to FKBP12.
A short description of test [12]: Inhibitory concentration against LN229 cell proliferation. It is filed as functional, cell-based. The settings on record: Homo sapiens, LN-229.
The test system of test [13] is OVCAR-3. The experiment in a line: Cytotoxicity by measuring inhibitory concentration against ovcar-3 tumor cell line. The settings on record: Homo sapiens, OVCAR-3. It is filed as functional, cell-based, Homo sapiens.
Test [14] has as its system OVCAR-3. The experiment in a line: Cytotoxicity by measuring inhibitory concentration against ovcar-3 tumor cell line; 10e-10. It is filed as functional, cell-based. The settings on record: Homo sapiens.

≈ marks a conversion by molar mass, not a printed value.

T1 sequence (P05106 27-788 limits assumed): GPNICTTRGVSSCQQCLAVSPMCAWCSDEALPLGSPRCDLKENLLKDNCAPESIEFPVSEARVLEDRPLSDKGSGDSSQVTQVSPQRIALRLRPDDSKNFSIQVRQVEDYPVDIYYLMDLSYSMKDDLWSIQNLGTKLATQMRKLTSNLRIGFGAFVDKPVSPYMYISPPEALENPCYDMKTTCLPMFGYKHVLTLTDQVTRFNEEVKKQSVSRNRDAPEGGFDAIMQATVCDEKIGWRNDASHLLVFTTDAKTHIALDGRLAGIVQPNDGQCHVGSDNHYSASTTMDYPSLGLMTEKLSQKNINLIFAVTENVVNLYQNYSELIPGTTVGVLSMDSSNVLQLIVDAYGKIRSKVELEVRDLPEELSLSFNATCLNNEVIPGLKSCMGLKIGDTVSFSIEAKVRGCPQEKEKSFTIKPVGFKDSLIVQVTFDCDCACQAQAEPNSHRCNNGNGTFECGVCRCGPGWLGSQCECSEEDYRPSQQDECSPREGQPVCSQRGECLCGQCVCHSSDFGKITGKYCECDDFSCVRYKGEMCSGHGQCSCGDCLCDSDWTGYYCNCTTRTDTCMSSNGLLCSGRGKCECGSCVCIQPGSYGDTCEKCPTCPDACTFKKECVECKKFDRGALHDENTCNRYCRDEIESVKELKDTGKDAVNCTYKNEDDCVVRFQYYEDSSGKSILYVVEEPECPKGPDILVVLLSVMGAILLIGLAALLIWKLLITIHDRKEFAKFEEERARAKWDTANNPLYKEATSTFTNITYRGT
T1 sequence (P08514 32-887 limits assumed): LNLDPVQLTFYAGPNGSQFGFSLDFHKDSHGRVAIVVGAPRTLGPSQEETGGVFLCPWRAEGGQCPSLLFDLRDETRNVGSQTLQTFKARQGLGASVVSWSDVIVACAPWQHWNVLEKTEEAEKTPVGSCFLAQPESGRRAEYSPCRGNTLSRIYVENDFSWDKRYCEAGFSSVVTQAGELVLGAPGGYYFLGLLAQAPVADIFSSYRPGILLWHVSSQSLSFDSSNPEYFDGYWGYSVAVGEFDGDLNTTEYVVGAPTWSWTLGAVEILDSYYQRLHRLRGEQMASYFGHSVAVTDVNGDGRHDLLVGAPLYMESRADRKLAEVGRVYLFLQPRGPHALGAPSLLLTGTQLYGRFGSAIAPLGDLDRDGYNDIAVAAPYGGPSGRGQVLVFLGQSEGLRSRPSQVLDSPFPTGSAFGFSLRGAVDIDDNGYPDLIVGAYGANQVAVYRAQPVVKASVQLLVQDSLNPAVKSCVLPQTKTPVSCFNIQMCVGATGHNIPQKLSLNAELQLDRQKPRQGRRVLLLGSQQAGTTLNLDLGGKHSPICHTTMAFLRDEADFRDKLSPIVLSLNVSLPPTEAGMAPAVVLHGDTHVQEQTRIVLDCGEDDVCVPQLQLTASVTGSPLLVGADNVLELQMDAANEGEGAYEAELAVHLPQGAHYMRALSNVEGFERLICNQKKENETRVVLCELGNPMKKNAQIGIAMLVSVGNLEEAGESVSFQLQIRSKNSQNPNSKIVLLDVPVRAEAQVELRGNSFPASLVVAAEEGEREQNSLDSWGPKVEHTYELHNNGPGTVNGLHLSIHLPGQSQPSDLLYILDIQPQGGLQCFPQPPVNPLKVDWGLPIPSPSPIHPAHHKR
T1 sequence (P08514 891-1039 limits assumed): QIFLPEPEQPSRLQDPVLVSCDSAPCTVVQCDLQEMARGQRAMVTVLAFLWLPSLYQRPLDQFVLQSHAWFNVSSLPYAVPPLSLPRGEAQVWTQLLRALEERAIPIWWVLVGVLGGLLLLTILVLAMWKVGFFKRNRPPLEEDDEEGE
T3 sequence (Q96RI1 whole entry): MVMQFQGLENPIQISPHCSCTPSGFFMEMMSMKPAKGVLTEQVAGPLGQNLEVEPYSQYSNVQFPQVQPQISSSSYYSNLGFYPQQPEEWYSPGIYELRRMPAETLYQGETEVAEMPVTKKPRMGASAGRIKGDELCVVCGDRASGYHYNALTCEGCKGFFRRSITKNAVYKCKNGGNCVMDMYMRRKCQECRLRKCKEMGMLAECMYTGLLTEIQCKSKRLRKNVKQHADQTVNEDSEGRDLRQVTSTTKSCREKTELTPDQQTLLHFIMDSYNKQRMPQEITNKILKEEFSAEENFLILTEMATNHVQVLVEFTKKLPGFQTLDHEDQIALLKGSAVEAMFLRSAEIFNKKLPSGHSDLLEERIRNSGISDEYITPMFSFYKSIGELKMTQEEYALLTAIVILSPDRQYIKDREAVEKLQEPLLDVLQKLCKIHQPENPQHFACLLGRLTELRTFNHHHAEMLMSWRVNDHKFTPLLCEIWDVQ
Chain of Peptidyl-prolyl cis-trans isomerase FKBP1A (P62942 whole entry): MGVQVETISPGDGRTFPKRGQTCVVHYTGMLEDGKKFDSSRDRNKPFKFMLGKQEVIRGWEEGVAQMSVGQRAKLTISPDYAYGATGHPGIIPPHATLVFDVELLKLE

As to `N=C(N)N1CCN(c2ccc(C(=O)NC[C@H](NS(=O)(=O)c3c(O)ccc4ccccc34)C(=O)O)cc2[N+](=O)[O-])CC1`, the IC50 in test [1] and in [2] was 14 nM throughout.

In the case of `CC(=O)O[C@@H]1C2=C(C)[C@H](OC(=O)[C@H](O)[C@@H](NC(=O)c3ccccc3)c3ccccc3)C[C@@](O)([C@@H](OC(=O)c3ccccc3)c3ccccc3[C@H]1OC(C)=O)C2(C)C`, in the test on OVCAR-3 [3], the IC50 (as a rule, the midpoint of a concentration-inhibition curve) was “Not Active”.

Turning to `C=C(C=O)C[C@@H]1C[C@H](O)[C@]2(C)O[C@@H]3C[C@@H]4O[C@@H]5C[C@]6(C)O[C@]7(C)C(C)=CC(=O)O[C@H]7C[C@H]6O[C@@]5(C)C/C=C\[C@H]4O[C@H]3C[C@H]2O1` [TRUNCATED BREVETOXIN B], the IC50 in test [4] and in [6] was over 10000 nM each time. Besides, in [5], the Binding is 18 nM.

Take `COc1c(CN(C(=O)C2CC2)c2ccccc2)ccc2c1OC(C)(C)C=C2`: the EC50 on Bile acid receptor [7] and at Bile acid receptor [8] was 10000 nM throughout.

As for `COC[C@@H](C[C@H]1O[C@@](O)([C@H](O)[C@@H]2C[C@H](OC)[C@@H](O)CC/C=C(C)/C=C/[C@@H](O[C@@H]3O[C@@H](C)[C@H](OC)[C@@H](O)[C@@H]3O)[C@H](C)/C=C(C)/C=C(C)/C=C(\C)C(=O)O2)[C@H](C)[C@@H](O)[C@H]1C)OC1C[C@](C)(O)[C@@H](O[C@H]2C[C@@H](OC)[C@H](O)[C@@H](C)O2)[C@H](C)O1` (stereo not given in full) [APOPTOLIDIN], half-maximal inhibition in the test on 1A9 (IC50) required 240000 nM.

As to `CC1(C)C=Cc2cccc(/C=C(/C#N)c3ccc(O)cc3)c2O1`, the MIC (in general, the lowest concentration found to suppress growth) with Staphylococcus aureus was determined as 12 µg/mL (≈ 39.6 µM); with Staphylococcus aureus (Staphylococcus aureus, read-out: MIC), 12 µg/mL (≈ 39.6 µM).

Consider `CC1OC(OC2C(Oc3c4cc5cc3Oc3ccc(cc3Cl)[C@H](O)[C@H]3NC(=O)[C@@H](NC(=O)[C@H]5NC(=O)[C@@H](CC(N)=O)NC(=O)[C@@H](NC(=O)[C@@H](N)CO)[C@@H](O)c5ccc(c(Cl)c5)O4)c4ccc(O)c(c4)-c4c(O)cc(O)cc4[C@H](C(=O)NCC(=O)O)NC3=O)OC(CO)C(O)C2O)CC(C)(NCc2cccc(OCC/C=C\COc3cccc(CNC4(C)CC(OC5C(Oc6c7cc8cc6Oc6ccc(cc6Cl)[C@@H](O)[C@@H](NC(=O)[C@H](N)CO)C(=O)N[C@@H](CC(N)=O)C(=O)N[C@H]8C(=O)N[C@H]6C(=O)N[C@H](C(=O)N[C@H](C(=O)NCC(=O)O)c8cc(O)cc(O)c8-c8cc6ccc8O)[C@H](O)c6ccc(c(Cl)c6)O7)OC(CO)C(O)C5O)OC(C)C4O)c3)c2)C1O` (stereo not given in full), for which it took 0.25 µg/mL (≈ 0.0779 µM) to inhibit growth against Enterococcus faecium (MIC).

Regarding `CC(C)C[C@H]1NC(=O)[C@H](Cc2ccccc2)NC(=O)CNC(=O)[C@H](C)NC(=O)[C@H](Cc2ccc(O)cc2)NC(=O)/C=C\c2ccccc2OCOC1=O`, the MIC against Enterococcus faecium amounted to 0.25 µg/mL (≈ 0.343 µM).

Turning to `CCNC1COC(OC2C(O[C@H]3C#C/C=C\C#C[C@@](C)(O)C(=C/CSC(C)=O)/C3=C(\NC(=O)OC)C(C)=O)OC(C)C(NOC3CC(O)C(SC(=O)c4c(C)c(I)c(OC5OC(C)C(O)C(OC)C5O)c(OC)c4OC)C(C)O3)C2O)CC1OC` (stereo not given in full), the IC50 in the test with MOLT-4 [9] is under 0.001 nM; in the test on MOLT-4 [10], under 0.01 nM.

`CO[C@H]1C[C@@H]2CC[C@@H](C)[C@@](O)(O2)C(=O)C(=O)N2CCCC[C@H]2C(=O)N[C@H](CCc2ccccc2)C(=O)NCC(=O)N(C)CC(=O)O[C@H]1C` gave an IC50 in test [11] of 9.6 nM. This lies in the single-digit nanomolar range.

Take `COCn1c(Cl)c2c3c(cccc31)-c1cccc3c1OC[C@@]3(c1ccccc1)c1oc(C)nc1-c1nc(Cl)c-2o1`: the IC50 in the test with 1A9 turned out to be 3600 nM.

Take `COc1c(C(C)n2cnc3ncccc32)ccc2c1C=CC(C)(C)O2` (stereo not given): the midpoint of inhibition in [12], the IC50, lay at 26000 nM.

For the molecule `CC(=O)OC1C(=O)[C@@]2(C)[C@H]([C@H](OC(=O)c3ccsc3)[C@]3(O)C[C@H](OC(=O)[C@H](O)[C@@H](NC(=O)c4ccccc4)c4ccccc4)C(C)=C1C3(C)C)[C@]1(OC(C)=O)CO[C@@H]1C[C@@H]2O` (stereo not given in full), the IC50 stood at 0.671 nM in the test on OVCAR-3 [13] and 0.67 nM in the test on OVCAR-3 [14].
